Measurements taken from patent US6596497B1, “Screening of antiviral compounds targeted to the HIV-1 gp41 core structure” (New York Blood Center, Inc., priority 1999, dated 2003).
≈ marks a conversion by molar mass, not a printed value.

Columns and labels:
[1] = target: T1, N-36/C-34 complex (HIV-1 gp41 core) (Human immunodeficiency virus type 1 group M subtype B, UniProt P04578); experiment: biochemical; type: binding; conditions: for IC50 ± SD NC-1 binding: N-36 2 μM preincubated with compound, then C-34 2 μM; for Inhibitory activity on complex formation by N-36 and C-34 (in words): no concentration stated
T1 construct: Peptides derived from the NHR and CHR regions of gp41, designated N- and C-peptides; made in house; host or cells: chemical synthesis (solid-phase FMOC)
Protocol: For detection of peptide complexes, a direct and a sandwich ELISA were used. In the direct ELISA, the N- and C-peptides were mixed at equimolar concentration in PBS and diluted in coating buffer. Then, the peptide complexes were directly coated onto the wells of microplate. In the sandwich ELISA, the plate was coated with IgG (10 μg/ml) purified from rabbit antisera directed against N36(L6)C34, followed by the addition of the peptide complexes formed by mixing N- and C-peptides in PBS in equimolar concentrations. To screen for antiviral agents, compounds were pre-incubated with N-peptides at 37° C. for 30 minutes before mixing with the C-peptides. The binding of the peptide complexes to the antibodies was then detected as described above.
The percentage of inhibition by the compounds of the binding of NC-1 to the peptide complexes was calculated as described in Jiang, S., K. Lin, and A. R. Neurath, 1991, “Enhancement of human immunodeficiency virus type-1 (HIV-1) infection by antisera to peptides from the envelope glycoproteins gp120/gp41”, J. Exp. Med., 174, 1557-1563.
A sandwich ELISA was established to screen for compounds that interfere with the formation of the N-36/C-34 complex. N-36 (2 μM) was preincubated with compounds at graded concentrations at 37° C. for 30 minutes, followed by the addition of C-34 (2 μM). After incubation at 37° C. for 30 minutes, the mixture was added to wells of a 96-well polystyrene plate (Immulon I, Dynatech Laboratories, Inc., Chantilly, Va.) which were precoated with IgG (10 μg/ml) purified from rabbit antisera directed against N36(L6)C34. […] Absorbance at 450 nm (A450) was read using an ELISA reader (Dynatech Laboratories, Inc., Chantilly, Va.). The percentage of inhibition by the compounds of the binding of NC-1 to the peptide complexes was calculated as described in Jiang S., K. Lin, and A. R. Neurath, 1991, “Enhancement of human immunodeficiency virus type-1 (HIV-1) infection by antisera to peptides from the envelope glycoproteins gp120/gp41”, J. Exp. Med., 174, 1557-1563. The concentration for 50% inhibition (IC50) was calculated using a computer program, designated Calcusyn (Chou, T.-C., 1991, “The median-effect principle and the combination index for quantitation of synergism and antagonism. In Synergism and Antagonism in Chemotherapy”, T.-C. Chou and D. C. Rideout, editors, Academic Press, San Diego, 61-102).

[2] = system: H9/HIV-1IIIB cells and MT-2 cells; experiment: cells; type: cell-based; conditions: for IC50 ± SD Cell fusion: 37° C., 2 hours; for Inhibitory activity on HIV-1-mediated cell fusion (in words): no concentration stated
Protocol: A dye transfer assay was used for detection of HIV-1-mediated cell fusion as described in Jiang et al., Nature, 365, 113 (1993). H9/HIV-1IIIB cells were labeled with a fluorescent reagent, 2′,7′-bis-(2-carboxyethyl)-5-and-6-carboxyfluorescein acetoxyethyl ester (BCECF-AM), (Molecular Probes, Inc., Eugene, Oreg.) and incubated with MT-2 cells (ratio=1:10) in a 96-well plate at 37° C. for 2 hours in the presence or absence of peptides or compounds tested. The fused and unfused BCECF-labeled HIV-1 infected cells were counted under an inverted fluorescence microscope (Zeiss, Germany) with an eyepiece micrometer discs. The percentage of inhibition of cell fusion was calculated as described in Jiang et al., 1993, Nature, 365, 113.
A dye transfer assay was used for detection of HIV-1 mediated cell fusion as described in Jiang, S., K. Lin, N. Strick, and A. R. Neurath, 1993, Inhibition of HIV-1 infection by a fusion domain binding peptide from HIV-1 envelope glycoprotein gp41, Biochem. Biophys. Res. Commun., 195, 533-538.
H9/HIV-1IIIB cells were labeled with a fluorescent reagent, 2′,7′-bis-(2-carboxyethyl)-5-and-6-carboxyfluorescein acetoxyethyl ester (BCECF-AM) (Molecular Probes, Inc., Eugene, Oreg.) and then incubated with MT-2 cells (ratio=1:10) in 96-well plates at 37° C. for 2 hours in the presence or absence of the compounds tested. The fused and unfused BCECF-labeled HIV-1 infected cells were counted under an inverted fluorescence microscope (Zeiss, Germany) with an eyepiece micrometer disc. The percentage of inhibition of cell fusion and the IC50 values were calculated as described in Jiang et al., (1993), Biochem. Biophys. Res. Commun., 195, 533-538.

HIV-1IIIB = experiment: HIV-1-mediated cytopathic effect (CPE), XTT; type: cell-based; conditions: for Selective Index (S.I.) = CC50/IC50 for CPE / IC50 ± SD CPE: MT-2 cells; for IC50 ± SD CPE: sixth day post infection
Protocol: The inhibitory activity of the compounds was determined by a calorimetric method based on protection of cells against HIV-1-mediated CPE, as described in Jiang et al., (1991), J. Exp. Med., 174, 1557-1563. 1×10^4 MT-2 cells in 96-well plates were infected with diluted HIV-1IIIB in 200 μl RPMI 1640 medium containing 10% FBS in the presence of compounds at graded concentrations. After 1 hour, 24 hours and 4 days, half of the culture media were changed. On the sixth day post infection, an indicator, XTT tetrazolium dye (1 mg/ml; 50 μl/well; PolySciences, Inc., Warrington, Pa.), was added to the cells. After 4 hours, the soluble intracellular formazan was determined calorimetrically at 450 nm. The percent of inhibition of CPE and the IC50 values were calculated as described above.

MT-2 cells = experiment: In vitro cytotoxicity, XTT; type: cell-based
Protocol: The in vitro cytotoxicity for MT-2 cells of the compounds was determined in 96-well plates using the XTT dye to measure cell viability in the absence of virus. Ten μl of 5% TRITON X-100 were added to the wells corresponding to positive controls (“P”) and 10 μl medium was added to wells corresponding to negative controls (“N”). The percent cytotoxicity was calculated using the following formula: % cytotoxicity=[(E−N)/(P−N)]×100%, wherein “E” represents experimental data in the presence of compounds. The concentration corresponding to 50% cytotoxicity (CC50) for MT-2 cells was calculated using the Calcusyn computer program. The selectivity index (S.I.=CC50/IC50) for each compound was calculated.

[3] = target: T2, preformed N36/C34 complex (Human immunodeficiency virus type 1 group M subtype B, UniProt P04578); experiment: Control ELISA: NC-1 binding to preformed complex in the presence of compound; parameters: species or system HIV-1; conditions: different concentrations of compound
T2 construct: Peptides derived from the NHR and CHR regions of gp41, designated N- and C-peptides; made in house; host or cells: chemical synthesis (solid-phase FMOC)
Excerpt: The position might be taken that ADJ-J1, selected by a sandwich ELISA, may not block the complex formation by N- and C-peptides, but instead block NC-1 binding to the complex, either due to its association with MAb NC-1 or with the N36/C34 complex. The first possibility was excluded, since the antibody-coated wells of the plastic plates were extensively washed after addition of the mixture of N36, ADS-J1 and C34 and before. addition of MAb NC-1, excluding the presence of unbound ADS-J1, which could bind to MAb NC-1. To determine whether or not ADS-J1 binds to the surface of the N36/C34 complex and blocks NC-1 binding, a control experiment was conducted in which the complex In was preformed by mixing N36 and C34 at equimolar concentrations and captured to the wells of plastic plates coated with rabbit antibody directed against N36/C34 complex. Then, the binding of MAb NC-1 to the preformed complex in the presence of ADS-J1 at different concentrations was determined.

T1 sequence (P04578 546-581, one chain of several): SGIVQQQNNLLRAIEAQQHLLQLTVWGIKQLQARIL
T2 sequence (P04578 546-581, one chain of several): as above

Row | Molecule | IC50 ± SD NC-1 binding [1] [mg/L] | IC50 ± SD Cell fusion [2] [mg/L] | Selective Index (S.I.) = CC50/IC50 for CPE (HIV-1IIIB) | IC50 ± SD CPE (HIV-1IIIB) [mg/L] | CC50 ± SD (MT-2 cells) [mg/L] | Inhibition of NC-1 detectable complex formation by N-36 and C-34 (in words) ([1]; compounds at 10 μg/ml, FIG. 13) | Inhibitory activity on complex formation by N-36 and C-34 (in words) [1] | Inhibitory activity on complex formation by N-36 and C-34 (in words) ([1]; listed as ADJ-1) | Blocking of NC-1 binding to the preformed N36/C34 complex [3] | Inhibition of HIV-1-mediated cell fusion (in words) ([2]; compounds at 10 μg/ml, FIG. 13) | Inhibitory activity on HIV-1-mediated cell fusion (in words) [2] | Inhibitory activity on HIV-1-mediated cell fusion (in words) ([2]; listed as ADJ-1) | Inhibitory activity on HIV-1-mediated CPE (in words) (HIV-1IIIB; no concentration stated)
1 | Cc1ccc(C(=O)Nc2cccc(C(=O)N/N=C/c3ccc(Br)cc3)c2)cc1 [ADS-J3] | >100 | >100 | ≦1.00 | >100 | 24.91 ± 2.62 (≈ 57.1 µM) |  |  |  |  |  |  |  | 
2 | COc1ccc2c(c1)CCC/C2=N\OC(=O)Nc1ccccc1-c1ccccc1 [ADS-J8] | >100 | >100 | ≦1.00 | >100 | 46.83 ± 4.93 (≈ 121 µM) |  |  |  |  |  |  |  | 
3 | 7-[6-phenylamino-4-[4-[(3,5-disulfo-8-hydroxynaphthyl)azo]-2-methoxy-5-methylphenylamino]-1,3,5-triazine-2-yl]-4-hydroxy-3-[(2-methoxy-5-sulfophenyl)azo]-2-naphthalene sulfonic acid [ADS-J1] | 0.73 ± 0.08 | 4.95 ± 1.31 | 35.24 | 8.29 ± 1.13 | 292.16 ± 2.27 | completely inhibited | promising inhibitory activity | most potent inhibitory activity | unable to block | completely inhibited | promising inhibitory activity | most potent inhibitory activity | promising inhibitory activity
